Measured values reported in patent US6649144B1, “Method for detecting and killing epithelial cancer cells” (Zila, Inc., priority 2001, dated 2003).

Test system: carcinoma cells
Assay: Uptake and retention of mitochondrial marking agents in living carcinoma cells
Type: cell-based
Settings: 5 minutes incubation at 37° C., rinsed twice with 1% acetic acid, 2-butanol extraction, spectrophotometry
Experimental: Different concentrations of the various cationic marking agents, at 100, 50, 10 and 1 μg/ml are prepared in RPMI medium complete with 20% fetal calf serum, 1 mM glutamine, hydrocortisone, insulin, transferrin, estradiol, selenium and growth hormone.
The carcinoma cells are incubated at 37° C. in tissue culture incubators with 5% CO2 and 95% relative humidity, for 5 minutes with each agent and concentration there and then rinsed twice using 2 minute incubations with 1% acetic acid. After incubation and rinsing, the cells are harvested, at 30 min., 1 hour, 2 hours, 4 hours and 8 hours. The cells are then extracted with 2-butanol and analyzed by spectrophotometry for quantitation of the marking agent.
The saturation concentration for toluidine blue O occurs at concentrations of 10 μg/ml and above. The saturation concentrations for the other marking agents are similarly determined. The remaining experiments are conducted with a concentration of 10 μg/ml for toluidine blue O and at the saturation concentrations for the other marking agents so-determined, unless stated otherwise.

SMILES: Cc1cc2nc3ccc(N(C)C)cc3[s+]c2cc1N.[Cl-] [toluidine blue O]
- saturation concentration: ≥ 10 µg/mL
